# Test results: US8058243B2, “Method for treating a brain cancer with ifenprodil” (HSC Research and Development Limited Partnership, priority 2006, dated 2011)
# Counter-ions that a name gives are not always drawn. Like-named read-outs stand apart in the source and are kept apart here.
# How the values were obtained:
# [1] = test system: murine neural precursor cells (neurosphere cultures); experiment: HTS of LOPAC library against secondary neurosphere cultures, MTT proliferation assay at 3 μM, day 7 (z score, P value); type: cell-based, mouse
# [2] = test system: mouse NSC neurosphere cultures; experiment: Dose-response curves and EC50, neurosphere MTT proliferation, 7 days; type: cell-based
# [3] = test system: ptc1+/− medulloblastoma precursor cells (neurosphere cultures); experiment: Medulloblastoma tumor sphere MTT proliferation EC50; type: cell-based, mouse
# Excerpt: Astrocyte Screen and Neurosphere Selectivity Assessment. […] Murine Medulloblastoma Generation and Culture. […] Flow Cytometry. […] Results
# [4] = LOPAC library screen at 3 μM, secondary neurosphere cultures, MTT
# [5] = LOPAC screen, neurosphere MTT proliferation, 3 μM, day 7
# [6] = yes/no: significantly inhibited neurosphere proliferation (P<0.01) in primary screen
# [7] = Table 8, read-out: Neurosphere EC50
# [8] = normal mouse neurosphere cultures, MTT, 7 days, read-out: Neurosphere EC50
# [9] = read-out: EC 50% Neurosphere, Table 5
# [10] = cultures derived from mouse cerebellar tumor samples, read-out: Ptch1+/− neurosphere EC50
# [11] = LOPAC primary screen, neurosphere MTT proliferation, 3 μM, day 7
# [12] = yes/no: significantly inhibited neurosphere proliferation (P<0.01) in the primary screen
# [13] = Mus musculus, read-out: EC 50% Neurosphere, Table 5
# [14] = Mus musculus, Table 8, read-out: Neurosphere EC50
# [15] = LOPAC library screen, 3 μM, MTT, secondary neurosphere cultures, day 7
# [16] = yes = significantly inhibited neurosphere proliferation (P<0.01) in the primary screen
# [17] = 168 h, normal mouse neurosphere cultures, MTT, 7 days, read-out: Neurosphere EC50
# [18] = Mus musculus, ptc1+/− medulloblastoma derived neurospheres, read-out: Medulloblastoma Neurosphere EC50
# [19] = yes/no: significantly inhibited neurosphere proliferation in primary screen
# [20] = primary LOPAC screen, 3 μM, MTT, neurosphere proliferation
# [21] = yes/no: significantly inhibited neurosphere proliferation in the primary screen
molecule,measurement,setting,value
Oc1ccc(-c2nc(-c3ccc(F)cc3)c(-c3ccncc3)[nH]2)cc1 [SB 202190 (13)],Z Score,[1]; [4],−1.124
same,Z score,[1]; [5],−1.124
same,Activity,[1]; [6],no
same,EC50,[2]; [7],8060 nM
same,EC50,[2]; [8],8060 nM
same,EC50,[2]; [9],8060 nM
same,EC50,[3]; [10],3010 nM
same,EC50,"[3]; ptc1+/− medulloblastoma derived neurospheres, read-out: Medulloblastoma Neurosphere EC50",3010 nM
"S=C=Nc1cccc(C2(N3CCCCC3)CCCCC2)c1 [Metaphit (35), Metaphit, reference compound]",Z Score,[1],−4.967
same,Z score,[1]; [11],−4.967
same,Activity,[1]; [12],yes
same,EC50,[2]; [13],10000 nM
same,EC50,[2]; [14],10000 nM
"CC(C)COCC(CN(Cc1ccccc1)c1ccccc1)N1CCCC1 (stereo not shown) [Bepridil (28), Bepridil, reference compound]",Z Score,[1]; [15],−2.655
same,Z score,[1]; [11],−2.655
same,Activity,[1]; [16],yes
same,EC50,[2]; [13],2700 nM
same,EC50,[2]; [14],2700 nM
"CCCCCCCCCCC/C=C\C(C)(C)/C=C\CCCC(=O)O [7,7-Dimethyl-(5Z,8Z)-eicosadienoic acid]",Z Score,[1],−3.045
same,Z score,[1]; [11],−3.045
same,Activity,[1]; [12],yes
same,EC50,[2]; [7],5170 nM
"CC[C@]1(O)C[C@@H]2CN(CCc3c([nH]c4ccccc34)[C@@](C(=O)OC)(c3cc4c(cc3OC)N(C)[C@H]3[C@@](O)(C(=O)OC)[C@H](OC(C)=O)[C@]5(CC)C=CCN6CC[C@]43[C@@H]65)C2)C1 [Vinblastine(22), Vinblastine]",EC50,[2]; [14],28 nM
"c1ccc2c(c1)[I+]c1ccccc1-2 [Diphenyleneiodonium (33), Diphenyleneiodonium, reference compound]",Z Score,[1]; [15],−10.07
same,Z score,[1]; [11],−10.068
same,Activity,[1]; [16],yes
same,EC50,[2]; [13],11 nM
same,EC50,[2]; [14],11 nM
"COc1ccc(CCNC[C@H](O)c2ccc(O)cc2)cc1OC [R(−)-Denopamine (24), R(−)-Denopamine]",EC50,[2]; [7],39200 nM
"CC(C)COC(=O)OCN1C(=O)CN(CCN2CC(=O)N(COC(=O)OCC(C)C)C(=O)C2)CC1=O [Sobuzaxane (19), Sobuzaxane]",EC50,[2]; [7],10200 nM
"COc1cc2ncnc(Nc3ccc(O)cc3)c2cc1OC [WHI-P131 (12), 4-(4′-hydroxylphenyl)-amino-6,7-dimethoxyquinazoline]",EC50,[2]; [17],2350 nM
same,EC50,[2]; [13],2350 nM
same,EC50,[2]; [14],2350 nM
same,EC50,[3]; [18],1520 nM
same,EC50,[3]; [10],1520 nM
(R)-(−)-Propylnorapomorphine [(R)-(−)-Propylnorapomorphine (5)],Activity,[1],yes
same,Z Score,[1],−8.274
same,Z score,[1],−8.274
same,EC50,[2]; [7],351 nM
same,EC50,[2]; [8],351 nM
same,EC50,[2]; [9],351 nM
same,EC50,[3]; [10],199 nM
same,EC50,[3]; read-out: Medulloblastoma Neurosphere EC50,199 nM
"CC(=O)O[C@H]1C(=O)[C@@]2(C)[C@H]([C@H](OC(=O)c3ccccc3)[C@]3(O)C[C@H](OC(=O)[C@H](O)[C@@H](NC(=O)c4ccccc4)c4ccccc4)C(C)=C1C3(C)C)[C@]1(OC(C)=O)CO[C@@H]1C[C@@H]2O [Taxol (21), Taxol]",EC50,[2]; [14],10 nM
"CN1CCN(c2nc3cc(C(F)(F)F)ccc3n3cccc23)CC1.O=C(O)/C=C\C(=O)O [CGS-12066A (40), reference compound]",Z Score,[1]; [15],−2.575
same,Z score,[1]; [11],−2.575
same,Activity,[1]; [16],yes
same,EC50,[2]; [7],2010 nM
same,EC50,[2]; [9],2010 nM
"CC[C@H](C)C(=O)O[C@H]1CCC=C2C=C[C@H](C)[C@H](CC[C@@H]3C[C@@H](O)CC(=O)O3)[C@H]21 [Mevastatin (20), Mevastatin]",EC50,[2]; [14],142 nM
"CC1=C(/C=C/C(C)=C/C=C/C(C)=C/C(=O)Nc2ccc(O)cc2)C(C)(C)CCC1 [Fenretinide (11), Retinoic acid p-hydroxyanilide]",Z Score,[1]; [15],−6.013
same,Z score,[1]; [11],−6.013
same,Activity,[1]; [12],yes
same,EC50,[2]; [17],334 nM
same,EC50,[2]; [13],334 nM
same,EC50,[2]; [14],334 nM
same,EC50,[3]; [18],204 nM
same,EC50,[3]; [10],204 nM
Tyrphoslin AG 34 [Tyrphoslin AG 34 (37)],EC50,[2]; [7],9920 nM
CN1CCN(CC(=O)N2c3ccccc3C(=O)Nc3cccnc32)CC1 [Pirenzepine dihydrochloride],Z score,"[1]; 168 h, 3 µM",−0.545
same,Activity,[1]; [19],no
CC(C)(C)c1o[nH]c(=O)c1CC(N)C(=O)O (stereo not shown) [ATPA],Activity,[1],no
same,Z Score,[1],0.2832
same,Z score,[1]; [20],0.283
NC/C=C\C(=O)O [cis-4-Aminocrotonic acid],Z Score,[1]; [4],−1.088
same,Z score,[1]; [20],−1.088
same,Activity,[1]; [21],no
C/C=C1\C(=O)C[C@H]2[C@@H]3CCC4=CC(=O)CC[C@]4(C)[C@H]3CC[C@]12C [(Z)-Gugglesterone],Z Score,[1],3.205
same,Z score,[1]; [5],3.205
same,Activity,[1]; [6],no
R(−)-N6-(2-Phenylisopropyl)adenosine,Z Score,[1]; [15],−2.023
same,Z score,[1]; [11],−2.023
same,Activity,[1]; [19],no
NCCCS(=O)(=O)O.[Na] [3-Amino-1-propanesulfonic acid sodium],Z Score,[1]; [15],−6.691
same,Z score,[1]; [11],−6.691
same,Activity,[1]; [12],yes
Cc1nc(N=Nc2cc(S(=O)(=O)[O-])c3cc([N+](=O)[O-])cc(S(=O)(=O)[O-])c3c2)c(COP(=O)([O-])[O-])c(C=O)c1O.[Na+].[Na+].[Na+].[Na+] [PPNDS tetrasodium],Z Score,[1],−2.067
same,Z score,[1]; [11],−2.067
same,Activity,[1]; [19],no
Br.C=CCN1CCc2c(cc(O)c(O)c2Br)[C@@H](c2ccccc2)C1 [R(+)-6-Bromo-APB hydrobromide],Z Score,[1],1.532
same,Z score,[1]; [5],1.532
same,Activity,[1]; [6],no
"C[C@H](Cc1ccc2c(c1)OC(C(=O)[O-])(C(=O)[O-])O2)NC[C@H](O)c1cccc(Cl)c1.[Na+].[Na+] [CL 316, 243]",Z Score,[1],0.6212
C[C@H]1C[C@H]2[C@@H]3CCC4=CC(=O)C=C[C@]4(C)[C@@]3(F)[C@@H](O)C[C@]2(C)[C@@]1(O)C(=O)CO [Betamethasone],Z Score,"[1]; LOPAC library screen, 3 μM, MTT, neurosphere cultures",0.8811
same,Z score,[1]; [5],0.881
Cc1cccc(C)c1N=C1NCCCS1 [Xylazine hydrochloride],Z Score,[1],0.3755
same,Z score,[1]; [20],0.375
same,Activity,[1]; [21],no
CCOC(=O)N1CCC(=C2c3ccc(Cl)cc3CCc3cccnc32)CC1 [Loratadine],Z Score,[1]; [15],−1.823
same,Z score,[1]; [11],−1.823
same,Activity,[1]; [6],no
C[C@H](CCC(=O)NCCS(=O)(=O)O)[C@H]1CC[C@H]2[C@@H]3[C@H](O)C[C@@H]4C[C@H](O)CC[C@]4(C)[C@H]3C[C@H](O)[C@]12C [Sodium Taurocholate],Activity,[1],no
same,Z Score,[1],−0.7604
same,Z score,[1],−0.760
"Cc1ccccc1N1CCN(S(=O)(=O)CC23CCC(CC2NC(=O)C(N)CCS(C)(=O)=O)C3(C)C)CC1 [L-368,899]",Z Score,[1],0.2909
same,Z score,[1]; [11],0.291
same,Activity,[1]; [6],no
CC(COc1ccc(/C=C/c2ccccc2)cc1)[N+](C)(C)C (stereo not shown),Z score,[1]; [11],−11.127
same,Activity,[1]; [12],yes
CCCCCCCC/C=C\CCCCCCCC(=O)NCCO [N-Oleoylethanolamine],Z Score,"[1]; 168 h, 3 µM",−0.4116
same,Z score,"[1]; 168 h, 3 µM",−0.412
same,Activity,[1]; [19],no
O=C(O)C1CN(CCCP(=O)(O)O)CCN1 (stereo not shown) [(B1)-CPP],Z Score,[1],0.3213
C[N+]1(C)CCOC(O)(c2ccc(-c3ccc(C4(O)C[N+](C)(C)CCO4)cc3)cc2)C1.[Br-].[Br-] (stereo not shown) [Hemicholinium-3],Z Score,[1],0.7871
same,Z score,[1]; [11],0.787
same,Activity,[1]; [6],no
C[C@@H]1O[C@@H](O[C@H]2C[C@@H](O)[C@]3(CO)[C@H]4[C@H](O)C[C@]5(C)[C@@H]([C@@H]6COC(=O)C6)CC[C@]5(O)[C@@H]4CC[C@]3(O)C2)[C@H](O)[C@H](O)[C@H]1O [Dihydroouabain],Z Score,[1],0.2034
same,Z score,[1]; [5],0.203
same,Activity,[1]; [6],no
